Measured values as given in the NIST ThermoML archive (doi:10.1021/je020125e).

Conditions: 101.33 kPa, Liquid, Hot wire method

CC(C)CC(C)C [2,4-dimethylpentane]
Conditions | thermal conductivity [W/m/K] | thermal diffusivity [m2/s]
256.59 K | 0.1138 | –
256.99 K | 0.1135 | –
257.3 K | 0.1133 | –
257.56 K | – | 7.9e-08
258.58 K | – | 7.84e-08
259.37 K | – | 7.76e-08
276.3 K | 0.1082 | –
276.69 K | 0.1079 | –
277.04 K | 0.1077 | –
277.29 K | – | 7.41e-08
278.27 K | – | 7.29e-08
279.16 K | – | 7.28e-08
296.19 K | 0.1025 | –
296.63 K | 0.1022 | –
296.97 K | 0.102 | –
297.18 K | – | 6.9e-08
298.25 K | – | 6.83e-08
299.08 K | – | 6.77e-08
316.55 K | 0.09692 | –
317.01 K | 0.09668 | –
317.37 K | 0.09645 | –
317.55 K | – | 6.43e-08
318.67 K | – | 6.39e-08
319.53 K | – | 6.32e-08
333.96 K | 0.0924 | –
334.43 K | 0.09213 | –
334.81 K | 0.09197 | –
334.93 K | – | 5.99e-08
336.06 K | – | 5.98e-08
336.97 K | – | 5.96e-08

CCCCCC(C)C [2-methylheptane]
Conditions | thermal conductivity [W/m/K] | thermal diffusivity [m2/s]
259.12 K | 0.1244 | –
259.33 K | 0.1242 | –
259.51 K | 0.1242 | –
260.04 K | – | 8.23e-08
260.63 K | – | 8.22e-08
261.12 K | – | 8.22e-08
277.53 K | 0.1195 | –
277.77 K | 0.1194 | –
277.96 K | 0.1193 | –
278.48 K | – | 7.83e-08
279.11 K | – | 7.84e-08
279.63 K | – | 7.81e-08
295.72 K | 0.1145 | –
295.95 K | 0.1144 | –
296.16 K | 0.1143 | –
296.69 K | – | 7.41e-08
297.31 K | – | 7.42e-08
297.85 K | – | 7.39e-08
313.83 K | 0.1097 | –
314.07 K | 0.1095 | –
314.3 K | 0.1095 | –
314.83 K | – | 7.05e-08
315.46 K | – | 7.04e-08
316.05 K | – | 7.06e-08
327.74 K | 0.1061 | –
328 K | 0.1059 | –
328.23 K | 0.1058 | –
328.77 K | – | 6.82e-08
329.44 K | – | 6.79e-08
330.02 K | – | 6.78e-08

CCCCC(C)C [2-methylhexane]
Conditions | thermal conductivity [W/m/K] | thermal diffusivity [m2/s]
256.24 K | 0.1227 | –
256.67 K | 0.1226 | –
257.02 K | 0.1224 | –
257.46 K | – | 8.41e-08
258.65 K | – | 8.33e-08
259.64 K | – | 8.28e-08
275.56 K | 0.1172 | –
276 K | 0.1168 | –
276.39 K | 0.1167 | –
276.83 K | – | 8e-08
278.06 K | – | 7.86e-08
279.12 K | – | 7.85e-08
296.46 K | 0.1109 | –
296.93 K | 0.1106 | –
297.4 K | 0.1105 | –
297.8 K | – | 7.5e-08
299.08 K | – | 7.43e-08
300.34 K | – | 7.38e-08
317.4 K | 0.1049 | –
317.92 K | 0.1047 | –
318.35 K | 0.1045 | –
318.77 K | – | 7.02e-08
320.16 K | – | 6.96e-08
321.33 K | – | 6.94e-08
337.1 K | 0.09956 | –
337.65 K | 0.0992 | –
338.11 K | 0.09905 | –
338.49 K | – | 6.63e-08
339.91 K | – | 6.52e-08
341.12 K | – | 6.49e-08

CCCC(C)C [2-methylpentane]
Conditions | thermal conductivity [W/m/K] | thermal diffusivity [m2/s]
256.56 K | 0.1182 | –
256.89 K | 0.1181 | –
257.29 K | 0.1179 | –
257.79 K | – | 8.23e-08
258.59 K | – | 8.18e-08
259.61 K | – | 8.15e-08
277.01 K | 0.1114 | –
277.35 K | 0.1113 | –
277.8 K | 0.1111 | –
278.28 K | – | 7.65e-08
279.1 K | – | 7.61e-08
280.22 K | – | 7.57e-08
297.36 K | 0.1049 | –
297.71 K | 0.1048 | –
298.16 K | 0.1046 | –
298.66 K | – | 7.11e-08
299.5 K | – | 7.09e-08
300.57 K | – | 7.04e-08
314.15 K | 0.09989 | –
314.51 K | 0.09978 | –
314.99 K | 0.09959 | –
315.5 K | – | 6.71e-08
316.34 K | – | 6.69e-08
317.47 K | – | 6.65e-08
328.29 K | 0.09597 | –
328.64 K | 0.09583 | –
329.15 K | 0.09564 | –
329.7 K | – | 6.42e-08
330.51 K | – | 6.39e-08
331.7 K | – | 6.36e-08

CCC(C)(C)CC [3,3-dimethylpentane]
Conditions | thermal conductivity [W/m/K] | thermal diffusivity [m2/s]
256.11 K | 0.1116 | –
256.71 K | 0.1112 | –
256.82 K | – | 7.8e-08
257.04 K | 0.1113 | –
257.62 K | – | 7.76e-08
258.25 K | – | 7.71e-08
276.17 K | 0.106 | –
276.5 K | 0.1058 | –
276.78 K | 0.1057 | –
276.87 K | – | 7.25e-08
277.64 K | – | 7.2e-08
278.3 K | – | 7.18e-08
296.01 K | 0.1005 | –
296.03 K | 0.1006 | –
296.39 K | 0.1004 | –
296.63 K | 0.1002 | –
296.64 K | – | 6.59e-08
296.69 K | – | 6.66e-08
297.52 K | – | 6.68e-08
298.08 K | – | 6.59e-08
316.38 K | 0.09528 | –
316.67 K | 0.09499 | –
316.93 K | 0.09481 | –
317.05 K | – | 6.22e-08
317.7 K | – | 6.09e-08
318.3 K | – | 6.05e-08
333.75 K | 0.09074 | –
334.1 K | 0.09063 | –
334.37 K | 0.09047 | 5.74e-08
335.16 K | – | 5.76e-08
335.77 K | – | 5.74e-08

CCC(CC)CC [3-ethylpentane]
Conditions | thermal conductivity [W/m/K] | thermal diffusivity [m2/s]
257.28 K | 0.1253 | –
257.54 K | 0.1252 | –
257.83 K | 0.1251 | –
258.36 K | – | 8.28e-08
259.11 K | – | 8.26e-08
259.89 K | – | 8.25e-08
277.62 K | 0.119 | –
277.89 K | 0.1188 | –
278.19 K | 0.1187 | –
278.75 K | – | 7.78e-08
279.49 K | – | 7.73e-08
280.3 K | – | 7.72e-08
296.33 K | 0.1132 | –
296.62 K | 0.113 | –
296.78 K | 0.113 | –
297.48 K | – | 7.29e-08
298.26 K | – | 7.28e-08
298.69 K | – | 7.28e-08
313.96 K | 0.1081 | –
314.27 K | 0.1079 | –
314.58 K | 0.1078 | –
315.16 K | – | 6.95e-08
315.99 K | – | 6.93e-08
316.82 K | – | 6.9e-08
331.22 K | 0.1032 | –
331.29 K | 0.1029 | –
331.56 K | 0.1031 | –
332.45 K | – | 6.59e-08
333.34 K | – | 6.59e-08
334.2 K | – | 6.55e-08

CCCCC(C)CC (configuration not stated) [3-methylheptane]
Conditions | thermal conductivity [W/m/K] | thermal diffusivity [m2/s]
259.08 K | 0.1255 | –
259.32 K | 0.1253 | –
259.58 K | 0.1252 | –
260.01 K | – | 8.29e-08
260.65 K | – | 8.28e-08
261.32 K | – | 8.27e-08
277.99 K | 0.1204 | –
278.23 K | 0.1203 | –
278.37 K | 0.1202 | –
278.95 K | – | 7.83e-08
279.57 K | – | 7.83e-08
279.93 K | – | 7.84e-08
297.36 K | 0.115 | –
297.63 K | 0.115 | –
297.91 K | 0.115 | –
298.32 K | – | 7.41e-08
299.02 K | – | 7.44e-08
299.76 K | – | 7.47e-08
315.56 K | 0.1101 | –
315.84 K | 0.1101 | –
316.12 K | 0.1099 | –
316.52 K | – | 6.98e-08
317.22 K | – | 7e-08
317.93 K | – | 6.98e-08
331.93 K | 0.1058 | –
332.21 K | 0.1057 | –
332.51 K | 0.1056 | –
332.93 K | – | 6.7e-08
333.64 K | – | 6.7e-08
334.38 K | – | 6.69e-08
